Paper PMC8659243, “Design, Synthesis and Tumour-Selective Toxicity of Novel 1-[3-{3,5-Bis(benzylidene)-4-oxo-1-piperidino}-3-oxopropyl]-4-piperidone Oximes and Related Quaternary Ammonium Salts” (Molecules, 2021)
Where a name gives a salt, the structure may show the parent alone.

How the values were obtained:
Ca9-22 cells = assay: Cytotoxicity against Ca9-22 cells, MTT method, 48 h; type: cell-based, human; settings: for CC50: Homo sapiens, Ca9-22, concentration required to kill 50% of the cells, 48 h, MTT, read-out: CC50 Ca9-22; for SI Ca9-22: average CC50 towards HGF, HPLF, HPC divided by CC50 against Ca9-22
Method: (§1) A literature procedure was followed when the compounds in series 3 and 4 were evaluated against three human oral squamous cell carcinoma cell lines Ca9-22 (RCB-1976), HSC-2 (RCB1945), HSC-4 (RCB1902) (purchased from RIKEN Cell Bank, Tukuba, Japan) and three human normal oral cells, gingival fibroblast (HGF), periodontal ligament fibroblast (HPLF) and pulp cells (HPC) (established according to the guideline of the intramural ethic committee, A0808) except the duration of incubation was increased from 24 h to 48 h. In brief, various concentrations of the compounds were added to the DMEM media, which was supplemented by 10% heat-inactivated fetal bovine serum. Incubation was undertaken at 37 °C. At the completion of the experiment, cell viability was determined by the MTT method.

HSC-2 cells = assay: Cytotoxicity against HSC-2 cells, MTT method, 48 h; type: cell-based, human; settings: for CC50: Homo sapiens, HSC-2, concentration required to kill 50% of the cells, 48 h, MTT; for SI HSC-2: average CC50 towards HGF, HPLF, HPC divided by CC50 against HSC-2
Method: as §1

HSC-4 cells = assay: Cytotoxicity against HSC-4 cells, MTT method, 48 h; type: cell-based, human; settings: for CC50: Homo sapiens, HSC-4, concentration required to kill 50% of the cells, 48 h, MTT, read-out: CC50 HSC-4; for SI HSC-4: average CC50 towards HGF, HPLF, HPC divided by CC50 against HSC-4
Method: as §1

[1] = system: Ca9-22, HSC-2 and HSC-4 cells; assay: Average over Ca9-22, HSC-2 and HSC-4 neoplastic cells; type: cell-based, human; settings: for CC50: Homo sapiens, average of Ca9-22, HSC-2 and HSC-4, read-out: Average CC50; for Average SI: average of SI for Ca9-22, HSC-2 and HSC-4
Method: In order to assess whether the compounds in series 3 and 4 are more toxic to neoplasms than non-malignant cells, selective index (SI) figures were calculated. In the in vivo situation, a tumour is surrounded by a number of non-malignant cells.
In order to identify the most promising lead compounds in terms of both cytotoxic potencies and favourable SI values, potency–selectivity expression (PSE) values were computed. […] Outstanding results may be noted for four compounds that have PSE values in excess of 100,000 namely 3d, 4c–e. […] However, the relative SI/PSE distribution patterns between series 3 and 4 (from a to h) are nearly superimposable with each other (Figure 3). […] It has been reported that 3,5-bis(3-iodo-5-methoxy-4-propoxybenzylidene)-N-acetylpiperidin-4-one inhibited tubulin and destabilization of microtubules, while 3,5-bis(3,4,5-trimethoxybenzylidene)-N-benzoylpiperidin-4-one destabilizes the microtubules. Thus, it remained to investigate whether compound 4d acts as an inhibitor of the microtubule.
as §1

[2] = Cytotoxicity against non-malignant HGF cells, MTT method, 48 h; type: cell-based; settings: human, gingival fibroblasts (HGF)
Method: as §1

[3] = Cytotoxicity against non-malignant HPLF cells, MTT method, 48 h; type: cell-based; settings: human, periodontal ligament fibroblasts (HPLF)
Method: as §1

[4] = Cytotoxicity against non-malignant HPC cells, MTT method, 48 h; type: cell-based; settings: human, pulp cells (HPC)
Method: as §1

[5] = Average over HGF, HPLF and HPC non-malignant cells; type: cell-based; settings: human, HPLF and HPC non-malignant cells (average of the three)
Method: as §1

[6] = system: CEM T-lymphoblastic leukemia cells; assay: Cytotoxicity against CEM cells, MTT method, 24 h; type: cell-based; settings: Homo sapiens, CCRF-CEM, concentration required to inhibit cell growth by 50%
Method: The method used for the evaluation of various compounds against human CEM cells has been reported previously. In brief, cells were grown in RPMI-1640 medium supplemented with 10% heat-inactivated fetal bovine serum. Different concentrations of compounds were added to the media, and after 24 h incubation, cytotoxicity was measured by the MTT method.

HL-60 (TB) cells = assay: NCI in vitro screen, leukemia HL-60 (TB); type: cell-based; settings: Homo sapiens
Source text: (§2) In view of the encouraging result with CEM leukemic cells, consideration was given to an assessment in the NCI in vitro screening program. The oximes, but not the quaternary ammonium salts, were accepted for bioevaluation. Examination of the mean graphs confirms the sensitivity of leukemic cells to these compounds.

K-562 cells = assay: NCI in vitro screen, leukemia K-562; type: cell-based; settings: Homo sapiens, K562
Source text: as §2

Molt-4 cells = assay: NCI in vitro screen, leukemia Molt-4; type: cell-based; settings: Homo sapiens
Source text: as §2

RPMI-8226 cells = assay: NCI in vitro screen, leukemia RPMI-8226; type: cell-based; settings: Homo sapiens
Source text: as §2

SR cells = assay: NCI in vitro screen, leukemia SR; type: cell-based; settings: Homo sapiens
Source text: as §2

leukemia cells = assay: NCI in vitro screen, average of leukemia cells; type: cell-based; settings: Homo sapiens
Source text: as §2

All Cell Lines = assay: NCI in vitro screen, all cell lines; type: cell-based; settings: Homo sapiens
Source text: (§3) One particular reference drug is 5-fluorouracil, which is used in treating colon cancers.

Colo205 cells = assay: NCI in vitro screen, colon cancer Colo205; type: cell-based; settings: Homo sapiens, COLO 205
Source text: as §3

HCC-2998 cells = assay: NCI in vitro screen, colon cancer HCC-2998; type: cell-based; settings: Homo sapiens
Source text: as §3

HCT-116 cells = assay: NCI in vitro screen, colon cancer HCT-116; type: cell-based; settings: Homo sapiens
Source text: as §3

HCT-15 cells = assay: NCI in vitro screen, colon cancer HCT-15; type: cell-based; settings: Homo sapiens
Source text: as §3

HT29 cells = assay: NCI in vitro screen, colon cancer HT29; type: cell-based; settings: Homo sapiens, HT-29
Source text: as §3

KM12 cells = assay: NCI in vitro screen, colon cancer KM12; type: cell-based; settings: Homo sapiens
Source text: as §3

SW-620 cells = assay: NCI in vitro screen, colon cancer SW-620; type: cell-based; settings: Homo sapiens
Source text: as §3

colon cancer cells = assay: NCI in vitro screen, average of colon cancer cells; type: cell-based; settings: Homo sapiens
Source text: as §3

| SMILES | CC50 (Ca9-22 cells) | SI Ca9-22 (Ca9-22 cells) | CC50 (HSC-2 cells) | SI HSC-2 (HSC-2 cells) | CC50 (HSC-4 cells) | SI HSC-4 (HSC-4 cells) | CC50 [1] | Average SI [1] | CC50 at 48 h [2] | CC50 at 48 h [3] | CC50 at 48 h [4] | CC50 at 48 h [5] | IC50 [6] | IC50 (HL-60 (TB) cells) | IC50 (K-562 cells) | IC50 (Molt-4 cells) | IC50 (RPMI-8226 cells) | IC50 (SR cells) | IC50 (leukemia cells) | IC50 (All Cell Lines) | further results |
| --- | --- | --- | --- | --- | --- | --- | --- | --- | --- | --- | --- | --- | --- | --- | --- | --- | --- | --- | --- | --- | --- |
| O=C1/C(=C/c2ccc(F)cc2)CN(C(=O)CCN2CCC(=NO)CC2)C/C1=C\c1ccc(F)cc1 [Compound 3b, (3~{E},5~{E})-3,5-bis[(4-fluorophenyl)methylene]-1-[3-(4-hydroximino-1-piperidyl)propanoyl]piperidin-4-one hydrochloride] | 370 ± 190 nM | 28.1 | 730 ± 130 nM | 14.3 | 200 ± 80 nM | 52.0 | 430 nM | 31.5 | 7120 ± 40 nM | 9730 ± 230 nM | 14200 ± 2000 nM | 10400 nM | 1780 ± 210 nM | 1550 nM | 350 nM | 330 nM | 290 nM | 250 nM | 520 nM | 1150 nM | IC50 (Colo205 cells): 1500 nM; IC50 (HCC-2998 cells): 1410 nM; IC50 (HCT-116 cells): 220 nM; IC50 (HCT-15 cells): 370 nM; IC50 (HT29 cells): 320 nM; IC50 (KM12 cells): 230 nM; IC50 (SW-620 cells): 200 nM; IC50 (colon cancer cells): 610 nM |
| O=C1/C(=C/c2ccc(Cl)cc2)CN(C(=O)CCN2CCC(=NO)CC2)C/C1=C\c1ccc(Cl)cc1 [Compound 3c, (3~{E},5~{E})-3,5-bis[(4-chlorophenyl)methylene]-1-[3-(4-hydroximino-1-piperidyl)propanoyl]piperidin-4-one hydrochloride] | 120 ± 80 nM | 113 | 660 ± 140 nM | 20.5 | 180 ± 30 nM | 75.0 | 320 nM | 69.5 | 6400 ± 350 nM | 8030 ± 60 nM | 26100 ± 35900 nM | 13500 nM | 15900 ± 940 nM | 560 nM | 160 nM | 280 nM | 160 nM | 40 nM | 240 nM | 1620 nM | IC50 (Colo205 cells): 350 nM; IC50 (HCC-2998 cells): 310 nM; IC50 (HCT-116 cells): 210 nM; IC50 (HCT-15 cells): 270 nM; IC50 (HT29 cells): 300 nM; IC50 (KM12 cells): 220 nM; IC50 (SW-620 cells): 150 nM; IC50 (colon cancer cells): 260 nM |
| O=C1/C(=C/c2ccc(Cl)c(Cl)c2)CN(C(=O)CCN2CCC(=NO)CC2)C/C1=C\c1ccc(Cl)c(Cl)c1 [Compound 3d, (3~{E},5~{E})-3,5-bis[(3,4-dichlorophenyl)methylene]-1-[3-(4-hydroximino-1-piperidyl)propanoyl]piperidin-4-one hydrochloride] | 20 ± 10 nM | 180 | 100 ± 20 nM | 35.9 | 70 nM | 51.3 | 60 nM | 89.1 | 1910 ± 220 nM | 3900 ± 1420 nM | 4970 ± 890 nM | 3590 nM | 8490 ± 340 nM | 1000 nM | 250 nM | 320 nM | 230 nM | 100 nM | 370 nM | 1300 nM | IC50 (Colo205 cells): 390 nM; IC50 (HCC-2998 cells): 360 nM; IC50 (HCT-116 cells): 320 nM; IC50 (HCT-15 cells): 270 nM; IC50 (HT29 cells): 320 nM; IC50 (KM12 cells): 250 nM; IC50 (SW-620 cells): 230 nM; IC50 (colon cancer cells): 310 nM |
| O=C1/C(=C/c2ccc([N+](=O)[O-])cc2)CN(C(=O)CCN2CCC(=NO)CC2)C/C1=C\c1ccc([N+](=O)[O-])cc1 [Compound 3e, (3~{E},5~{E})-1-[3-(4-hydroximino-1-piperidyl)propanoyl]-3,5-bis[(4-nitrophenyl)methylene]piperidin-4-one] | 30 nM | 109 | 120 ± 90 nM | 27.3 | 90 ± 20 nM | 36.3 | 80 nM | 57.5 | 1670 ± 310 nM | 3060 ± 160 nM | 5070 ± 210 nM | 3270 nM | 11600 ± 310 nM | 1550 nM | 280 nM | 400 nM | 300 nM | 100 nM | 500 nM | 1790 nM | IC50 (Colo205 cells): 400 nM; IC50 (HCC-2998 cells): 1170 nM; IC50 (HCT-116 cells): 490 nM; IC50 (HCT-15 cells): 360 nM; IC50 (HT29 cells): 330 nM; IC50 (KM12 cells): 290 nM; IC50 (SW-620 cells): 200 nM; IC50 (colon cancer cells): 460 nM |
| COc1cc(/C=C2\CN(C(=O)CC[N+]3(C)CCC(=NO)CC3)C/C(=C\c3cc(OC)c(OC)c(OC)c3)C2=O)cc(OC)c1OC (centres unmarked) [Compound 4h, (3~{E},5~{E})-1-[3-(4-hydroximino-1-piperidyl)propanoyl]-3,5-bis[(3,4,5-trimethoxyphenyl)methylene]piperidin-4-one methiodide] | 70 ± 10 nM | 20.4 | 220 ± 40 nM | 6.50 | 180 ± 40 nM | 7.94 | 160 nM | 11.6 | 620 ± 60 nM | 1320 ± 40 nM | 2350 ± 820 nM | 1430 nM | 5120 ± 140 nM |  |  |  |  |  |  |  |  |
